Values quoted from earlier work, collected in patent publication US20100068280A1, “SUSTAINED RELEASE PHARMACEUTICAL DOSAGE FORM CONTAINING PHENYLEPHRINE” (priority 2006, published 2010).

Conditions: in vivo

- elimination half-life: 9 to 12 h
Structure (SMILES): CN1CCC(=C2c3ccccc3CCc3cccnc32)CC1 [Azatadine]
